Experimental data from patent publication US10065990B2, “Cyclic peptide compound, and preparation method, pharmaceutical composition and use thereof” (HANGZHOU GUANYU BIO-MEDICAL CO., LTD, priority 2013, dated 2018).
Where two headings read alike, the source gives them in different places.

Legend:
[1] = target: HDAC1 (Homo sapiens, UniProt Q13547); test: HDAC biochemical activity measurement (fluorescent substrate deacetylation);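 also: fluorogenic acetyl-lysine substrate (20 µM) deacetylated by HDAC1, then developer releases fluorophore read at 360 nm excitation and 460 nm emission, inhibitor incubated 30 min at 37 °C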
[2] = target: T1, HDAC7 (Homo sapiens, UniProt Q8WUI4); test: as above; conditions: HDAC7; 37° C. 30 minutes;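 also: fluorogenic deacetylation assay using acetyl-lysine substrate at 20 µM, enzyme and compound incubated 30 min at 37 °C, then developer added, fluorescence read at 360/460 nm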
T1 sequence (Q8WUI4 1-952): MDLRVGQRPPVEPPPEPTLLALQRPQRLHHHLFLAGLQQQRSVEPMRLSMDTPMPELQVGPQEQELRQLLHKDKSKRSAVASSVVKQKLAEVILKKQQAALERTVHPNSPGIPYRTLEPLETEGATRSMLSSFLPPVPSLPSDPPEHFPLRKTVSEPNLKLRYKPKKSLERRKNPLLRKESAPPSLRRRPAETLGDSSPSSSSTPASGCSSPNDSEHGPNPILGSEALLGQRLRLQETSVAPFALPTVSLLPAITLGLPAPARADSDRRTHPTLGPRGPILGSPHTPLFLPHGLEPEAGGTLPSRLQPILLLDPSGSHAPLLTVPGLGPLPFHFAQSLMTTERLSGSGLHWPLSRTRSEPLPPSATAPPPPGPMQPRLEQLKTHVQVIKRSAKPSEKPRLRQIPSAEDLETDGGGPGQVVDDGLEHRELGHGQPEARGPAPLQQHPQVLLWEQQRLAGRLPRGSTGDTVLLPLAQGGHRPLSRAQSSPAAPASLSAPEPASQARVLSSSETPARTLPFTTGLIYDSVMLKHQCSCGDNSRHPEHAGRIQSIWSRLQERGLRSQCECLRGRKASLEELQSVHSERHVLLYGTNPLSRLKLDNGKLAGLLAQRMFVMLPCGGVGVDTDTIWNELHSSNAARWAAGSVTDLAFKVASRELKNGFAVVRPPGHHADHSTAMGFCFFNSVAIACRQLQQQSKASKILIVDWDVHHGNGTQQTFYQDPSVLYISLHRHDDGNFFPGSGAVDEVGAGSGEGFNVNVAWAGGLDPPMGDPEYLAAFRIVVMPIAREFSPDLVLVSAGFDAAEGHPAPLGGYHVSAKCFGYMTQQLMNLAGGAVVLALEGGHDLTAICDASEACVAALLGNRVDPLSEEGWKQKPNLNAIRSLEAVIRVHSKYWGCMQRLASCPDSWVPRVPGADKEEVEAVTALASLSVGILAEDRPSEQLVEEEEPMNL

[3] = target: HDAC2 (Homo sapiens, UniProt Q92769); test: as above; conditions: 37° C. 30 minutes;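 also: HDAC2 enzyme with an acetyl-lysine fluorescent substrate, then developer added, fluorescence read at excitation 360 nm and emission 460 nm, inhibition measured across several compound concentrations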
[4] = test system: U937 (human leukemia cells); test: MTT cancer cell growth inhibition; type: cell-based; conditions: Homo sapiens, U-937, 72 h, MTT
Method in brief: (§1)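 Cells seeded at 1500/well in DMEM or RPMI 1640 with 10% FBS, incubated overnight, then exposed to compound at 10^−5 to 10^−10 M final in triplicate for 72 h at 37° C, 5% CO2. MTT added for 4 h, formazan dissolved in DMSO, absorbance read at 570 nm; GI50 derived from viability.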

[5] = test system: Huh-7 (human hepatoma cells); test: MTT cancer cell growth inhibition; type: cell-based; conditions: Homo sapiens, Huh-7, 72 h, MTT, 72 hours incubation, Huh-7 cells; read-out: GI50 Huh-7
Method in brief: as §1

[6] = test system: MCF-7 (human breast cancer cells); test: MTT cancer cell growth inhibition; type: cell-based; conditions: Homo sapiens, MCF7, 72 h
Method in brief: as §1

[7] = test system: KBM5-T315I (human chronic myelogenous leukemia); test: MTT cancer cell growth inhibition; type: cell-based; conditions: Homo sapiens, 72 h, MTT, 72 hours incubation, KBM5-T315I cells; read-out: GI50 KBM5-T315I
Method in brief: as §1

[8] = test system: MOLT-4 (human acute lymphoblastic leukemia cells); test: MTT cancer cell growth inhibition; type: cell-based; conditions: Homo sapiens, MOLT-4, 72 h, MTT
Method in brief: as §1

[9] = test system: MDA-MB-231 (breast cancer cells); test: MTT cancer cell growth inhibition; type: cell-based; conditions: Homo sapiens, MDA-MB-231, 72 h, read-out: GI50 MDA-MB-231, MTT, 72 hours incubation, MDA-MB-231 cells
Method in brief: as §1

[10] = test system: Hela (human cervical cancer cells); test: MTT cancer cell growth inhibition; type: cell-based; conditions: Homo sapiens, HeLa, 72 h, MTT
Method in brief: as §1

[11] = test system: SGC-7901 (human gastric cancer cells); test: MTT cancer cell growth inhibition; type: cell-based; conditions: Homo sapiens, SGC-7901, 72 h, MTT, 72 hours incubation, SGC-7901 cells; read-out: GI50 SGC-7901
Method in brief: as §1

[12] = test system: Bel-7402 (human hepatoma cells); test: MTT cancer cell growth inhibition; type: cell-based; conditions: Homo sapiens, Bel-7402, 72 h, MTT, 72 hours incubation, Bel-7402 cells; read-out: GI50 Bel-7402
Method in brief: as §1

[13] = test system: A549 (human lung cancer cells); test: MTT cancer cell growth inhibition; type: cell-based; conditions: Homo sapiens, A549, 72 h, MTT
Method in brief: as §1

[14] = test system: BGC-823 (human gastric cancer cells); test: MTT cancer cell growth inhibition; type: cell-based; conditions: Homo sapiens, BGC-823, 72 h, MTT
Method in brief: as §1

[15] = test system: DU145 (human prostate cancer cells); test: MTT cancer cell growth inhibition; type: cell-based; conditions: Homo sapiens, DU-145, 72 h, MTT
Method in brief: as §1

[16] = test system: HT1080 (human fibrosarcoma cells); test: MTT cancer cell growth inhibition; type: cell-based; conditions: Homo sapiens, HT-1080, 72 h, MTT
Method in brief: as §1

[17] = HDAC1, 37° C. 30 minutes, read-out: IC50 HDAC1
[18] = Table 2, read-out: IC50 HDAC1, a (compounds of the present invention)
[19] = 72 hours, present invention, read-out: GI50 U937, a
[20] = U937 cells, 72 hours incubation, read-out: GI50 U93
[21] = 72 hours, present invention, read-out: GI50 MCF7, a
[22] = MCF-7 cells, 72 hours incubation, read-out: GI50 MCF
[23] = MOLT-4 cells, 72 hours incubation, read-out: GI50 Mol
[24] = 72 hours, present invention, read-out: GI50 Molt-4, a
[25] = Hela cells, 72 hours incubation, read-out: GI50 Hela
[26] = 72 hours, present invention, read-out: GI50 Hela, a
[27] = A549 cells, 72 hours incubation, read-out: GI50 A54
[28] = 72 hours, present invention, read-out: GI50 A549, a
[29] = BGC-823 cells, 72 hours incubation, read-out: GI50 BG
[30] = 72 hours, present invention, read-out: GI50 BGC823, a
[31] = DU145 cells, 72 hours incubation, read-out: GI50 Du1
[32] = 72 hours, present invention, read-out: GI50 Du145, a
[33] = HT1080 cells, 72 hours incubation, read-out: GI50 HT1
[34] = 72 hours, present invention, read-out: GI50 HT1080, a

Chain of HDAC2 (Q92769 whole entry, species assumed): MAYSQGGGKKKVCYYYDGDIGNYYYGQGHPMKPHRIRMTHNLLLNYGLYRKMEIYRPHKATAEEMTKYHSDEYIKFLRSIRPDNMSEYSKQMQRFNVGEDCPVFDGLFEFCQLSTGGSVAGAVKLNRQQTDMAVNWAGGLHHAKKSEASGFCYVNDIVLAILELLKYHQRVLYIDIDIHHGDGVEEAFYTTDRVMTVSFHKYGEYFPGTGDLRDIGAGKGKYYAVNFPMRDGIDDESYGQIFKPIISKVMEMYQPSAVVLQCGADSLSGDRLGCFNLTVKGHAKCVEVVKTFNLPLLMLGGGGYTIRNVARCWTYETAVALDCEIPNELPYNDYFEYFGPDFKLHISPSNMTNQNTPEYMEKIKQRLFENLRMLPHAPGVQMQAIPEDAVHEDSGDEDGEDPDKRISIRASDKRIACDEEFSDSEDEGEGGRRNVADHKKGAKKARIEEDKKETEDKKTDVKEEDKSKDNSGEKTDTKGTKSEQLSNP
Chain of HDAC1 (Q13547 whole entry, species assumed): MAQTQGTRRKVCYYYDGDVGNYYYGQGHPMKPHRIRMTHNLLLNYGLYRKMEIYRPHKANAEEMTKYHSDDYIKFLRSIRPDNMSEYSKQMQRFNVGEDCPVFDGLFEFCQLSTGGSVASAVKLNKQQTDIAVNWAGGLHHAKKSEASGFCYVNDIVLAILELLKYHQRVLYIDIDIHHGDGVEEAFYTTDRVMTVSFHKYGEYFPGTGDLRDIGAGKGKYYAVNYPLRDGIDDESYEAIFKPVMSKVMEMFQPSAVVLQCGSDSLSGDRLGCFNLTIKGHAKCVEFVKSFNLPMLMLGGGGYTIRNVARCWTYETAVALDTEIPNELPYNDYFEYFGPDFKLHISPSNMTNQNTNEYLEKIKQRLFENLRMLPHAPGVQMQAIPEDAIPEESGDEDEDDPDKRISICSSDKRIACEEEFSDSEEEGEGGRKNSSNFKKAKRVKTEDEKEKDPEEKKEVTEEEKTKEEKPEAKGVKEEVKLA

Compound	IC50 [1, 17]	IC50 [1, 18]	IC50 HDAC7 [2]	IC50 [3]	GI50 [4, 19]	GI50 [5]	GI50 [6, 21]	GI50 [7]	GI50 [8, 24]	GI50 [9]	GI50 [10, 25]	GI50 [10, 26]	GI50 [11]	GI50 [12]	GI50 [13, 27]	GI50 [13, 28]	GI50 [14, 29]	GI50 [14, 30]	GI50 [15, 32]	GI50 [16, 33]	further results
C/C=C1\NC(=O)c2cccc(n2)CNC(=O)C[C@@H](/C=C/CCSC(=O)CCCCCCC)OC(=O)[C@H](C(C)(C)C)NC1=O [Compound 237]	72 nM	< 80 nM	no activity	32 nM	110 nM	49 nM	350 nM	87 nM	970 nM	12 nM	880 nM	880 nM	33 nM	42 nM	420 nM	420 nM	170 nM	170 nM	40 nM	990 nM	GI50 [4, 20]: 110 nM; GI50 [6, 22]: 350 nM; GI50 [8, 23]: 970 nM; GI50 [15, 31]: 40 nM; GI50 [16, 34]: 990 nM
C/C=C1\NC(=O)c2cccc(n2)CNC(=O)C[C@@H](/C=C/CCSC(=O)CCCCCCC)OC(=O)[C@H](c2ccc(O)cc2)NC1=O [Compound 238]	44 nM	< 50 nM	no activity	83 nM	15 nM	55 nM	23 nM	66 nM	8 nM	46 nM	50 nM	55 nM	56 nM	31 nM	10 nM	16 nM	140 nM	140 nM	12 nM	20 nM	GI50 [4, 20]: 10 nM; GI50 [6, 22]: 20 nM; GI50 [15, 31]: 10 nM; GI50 [16, 34]: 26 nM
C/C=C1\NC(=O)c2cccc(n2)CNC(=O)C[C@@H](/C=C/CCSC(=O)CCCCCCC)OC(=O)[C@H](Cc2cccc3ccccc23)NC1=O [Compound 239]	77 nM	< 100 nM	no activity	56 nM	3 nM	51 nM	19 nM	23 nM	4 nM	25 nM	11 nM	11 nM	35 nM	28 nM	10 nM	12 nM	20 nM	22 nM	1 nM	10 nM	GI50 [6, 22]: 10 nM; GI50 [16, 34]: 11 nM
C/C=C1\NC(=O)c2cccc(n2)CNC(=O)C[C@@H](/C=C/CCSC(=O)CCCCCCC)OC(=O)[C@H](CCSC)NC1=O [Compound 240]	45 nM	< 50 nM	no activity	21 nM	12 nM	61 nM	1 nM	83 nM	18 nM	37 nM	70 nM	18 nM	24 nM	79 nM	10 nM	36 nM	190 nM	110 nM	4 nM	10 nM	GI50 [4, 20]: 30 nM; GI50 [8, 23]: 30 nM; GI50 [16, 34]: 33 nM
C/C=C1\NC(=O)c2cccc(n2)CNC(=O)C[C@@H](/C=C/CCSC(=O)CCCCCCC)OC(=O)[C@H](CC(C)C)NC1=O [Compound 241]	28 nM	< 30 nM	no activity	36 nM	7 nM	64 nM	28 nM	82 nM	3 nM	29 nM	11 nM	11 nM	63 nM	47 nM	110 nM	110 nM	100 nM	100 nM	3 nM	30 nM	GI50 [6, 22]: 20 nM; GI50 [16, 34]: 34 nM
C/C=C1\NC(=O)c2cccc(n2)CNC(=O)C[C@@H](/C=C/CCSC(=O)CCCCCCC)OC(=O)[C@H](CSCC)NC1=O [Compound 242]	19 nM	< 20 nM	no activity	43 nM	12 nM	59 nM	73 nM	33 nM	32 nM	16 nM	80 nM	88 nM	32 nM	88 nM	190 nM	190 nM	10 nM	14 nM	91 nM	30 nM	GI50 [4, 20]: 10 nM; GI50 [6, 22]: 70 nM; GI50 [8, 23]: 30 nM; GI50 [15, 31]: 90 nM; GI50 [16, 34]: 330 nM
C/C=C1\NC(=O)c2nc(ccc2C)CNC(=O)C[C@@H](/C=C/CCSC(=O)CCCCCCC)OC(=O)[C@H](C(C)C)NC1=O [Compound 243]	87 nM	< 100 nM	no activity	56 nM	870 nM	53 nM	120 nM	45 nM	490 nM	93 nM	230 nM	230 nM	25 nM	35 nM	940 nM	940 nM	860 nM	860 nM	130 nM	840 nM	GI50 [4, 20]: 870 nM; GI50 [6, 22]: 120 nM; GI50 [8, 23]: 490 nM; GI50 [15, 31]: 130 nM; GI50 [16, 34]: 840 nM
